Reference: PubChem BioAssay (NCI)
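Interpolation was linear, between the two tested concentrations surrounding the appropriate level; five concentrations were tested over 48 hours in 96-well plates. TGI: concentration producing complete growth inhibition.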

What was measured:
Assay in all cases: NCI-60 cell line screen, 48 h
[1] = test system: MOLT-4 leukemia
[2] = test system: OVCAR-8 ovarian
[3] = test system: MDA-MB-231 breast
[4] = test system: SK-MEL-2 melanoma
[5] = test system: EKVX NSCLC
[6] = test system: DU-145 prostate
[7] = test system: UACC-62 melanoma
[8] = test system: LOX IMVI melanoma
[9] = test system: CAKI-1 renal
[10] = test system: SF-268 CNS
[11] = test system: BT-549 breast
[12] = test system: SF-539 CNS

| Structure (SMILES) | TGI [1] | TGI [2] | TGI [3] | TGI [4] | TGI [5] | TGI [6] | TGI [7] | TGI [8] | TGI [9] | TGI [10] | TGI [11] | TGI [12] |
| --- | --- | --- | --- | --- | --- | --- | --- | --- | --- | --- | --- | --- |
| O=C1c2scc(-c3ccc(F)cc3)c2-n2cccc21 | > 100 µM | > 100 µM | > 100 µM | > 100 µM | > 100 µM | > 100 µM | > 100 µM | > 100 µM | > 100 µM | > 100 µM | 79.7 µM | – |
| CCOC(=O)CCN1C(=O)c2ccc(NC(=O)C(=O)O)cc2S1(=O)=O | > 100 µM | > 100 µM | > 100 µM | > 100 µM | > 100 µM | > 100 µM | > 100 µM | > 100 µM | > 100 µM | – | > 100 µM | > 100 µM |
| N#Cc1c(-c2cccc(Br)c2)cc(-c2ccc(Cl)cc2)nc1N | 50.1 µM | > 100 µM | – | 31.5 µM | 56.7 µM | > 100 µM | 29.2 µM | 30.5 µM | 79.1 µM | 73.6 µM | 99.3 µM | 39.5 µM |
| Nc1ccc2c(c1)N(C(=O)CCCC(=O)N1CC(CCl)c3ccc(N)cc31)CC2CCl (configuration not stated) | > 50 µM | > 11.2 µM | 8.76 µM | 1.43 µM | 7.8 µM | > 21 µM | – | 11.3 µM | – | 3.31 µM | 6.53 µM | 11.3 µM |
| COc1ccc(/C=C/C(=O)c2cccc(C(=O)/C=C/c3ccc(OC)c(OC)c3)n2)cc1OC | – | 18.3 µM | 70.6 µM | > 100 µM | > 100 µM | > 100 µM | > 57.4 µM | 10.6 µM | > 100 µM | > 89.3 µM | 44.9 µM | 38.4 µM |
| COc1ccc(-c2c(C#N)c(N)n(C3OCC(O)C(O)C3O)c(=S)c2C#N)cc1 (configuration not stated) | > 100 µM | > 100 µM | > 100 µM | > 100 µM | – | > 100 µM | > 100 µM | > 100 µM | > 100 µM | > 100 µM | > 100 µM | > 100 µM |
| CC(C)/C(Cl)=N/OC(NC(=O)Nc1ccc(Cl)c(Cl)c1)(C(F)(F)F)C(F)(F)F | 12 µM | 34.8 µM | 34.2 µM | – | 38.1 µM | 31.9 µM | 37.2 µM | 14.7 µM | 3.61 µM | 39.4 µM | 25.7 µM | 33.2 µM |
| C=CCN1C(=O)/C(=C/c2ccccc2)N=C1SC/C=C/C | – | > 100 µM | > 100 µM | 63 µM | – | > 100 µM | > 100 µM | > 100 µM | > 100 µM | > 100 µM | > 100 µM | > 100 µM |
| C=C[C@@]1(C)CC(=O)[C@]2(O)[C@@]3(C)[C@@H](OC(C)=O)CCC(C)(C)[C@@H]3[C@H](O)[C@H](OC(C)=O)[C@@]2(C)O1 | > 100 µM | > 100 µM | > 100 µM | > 100 µM | > 100 µM | > 100 µM | > 100 µM | > 100 µM | > 100 µM | – | > 100 µM | > 100 µM |
| COC(=O)C1=C(O)C(C(=O)OC)[C@]2(O)[C@H](C(=O)OC)[C@H]1C[C@@H](c1ccc(O)cc1)[C@H]2C(=O)OC (some centres not stated) | > 100 µM | > 100 µM | 60.7 µM | – | > 100 µM | 71.6 µM | > 100 µM | > 100 µM | > 100 µM | > 100 µM | 91.5 µM | 88.3 µM |
| c1ccc2c(c1)Sc1ccccc1N2CCCN1c2ccccc2Sc2ccccc21 | > 100 µM | > 100 µM | > 100 µM | – | > 100 µM | > 100 µM | > 100 µM | > 100 µM | > 100 µM | > 100 µM | > 100 µM | > 100 µM |
| Cc1ccc(/C(O)=C/c2nc3ccccc3nc2NC23CC4CC(CC(C4)C2)C3)cc1 | > 10 µM | > 10 µM | > 10 µM | – | – | > 10 µM | > 10 µM | > 10 µM | > 10 µM | > 10 µM | > 10 µM | > 10 µM |
| Cc1ccc(-n2nnc3c(NNc4ccccc4)n[nH]c(=O)c32)cc1 | > 100 µM | > 100 µM | > 100 µM | > 100 µM | > 100 µM | > 100 µM | – | > 100 µM | > 100 µM | – | > 100 µM | > 100 µM |
| CCCC[P+](CCCC)(CCCC)C(C(=O)OC)C(C(=O)OC)=C1SC(C(=O)OC)=C(C(=O)OC)S1 (configuration not stated) | > 100 µM | > 100 µM | > 100 µM | > 100 µM | > 100 µM | > 100 µM | > 100 µM | > 100 µM | – | > 100 µM | > 100 µM | – |
| O=c1[nH]nc(Cc2ccccc2)n1N=C1CCCCC1 | > 100 µM | > 100 µM | > 100 µM | > 100 µM | > 100 µM | > 100 µM | > 100 µM | > 100 µM | > 100 µM | > 100 µM | > 100 µM | – |
| Cc1nc(C)c(N2CCN(C(=O)NC(CCC(=O)O)C(=O)O)CC2)c(=O)[nH]1 (configuration not stated) | > 100 µM | > 100 µM | > 100 µM | – | > 100 µM | > 100 µM | > 100 µM | > 100 µM | > 100 µM | > 100 µM | > 100 µM | > 100 µM |
| CCCCn1c(C)c(C)c2c1NN=C(C#N)S2(=O)=O | > 100 µM | > 100 µM | > 100 µM | > 100 µM | > 100 µM | > 100 µM | > 100 µM | > 100 µM | – | > 100 µM | > 100 µM | > 100 µM |
| CC(SC(=S)N1CCCC1)C(=O)Nc1nnc(-c2ccc(Cl)cc2)o1 (configuration not stated) | – | > 100 µM | > 100 µM | > 100 µM | – | > 100 µM | > 100 µM | 54.8 µM | – | 96.9 µM | > 100 µM | > 100 µM |
| O=C(/C=C/c1ccsc1)c1cccs1 | > 10 µM | > 10 µM | > 100 µM | – | 99.4 µM | > 100 µM | 88.5 µM | – | > 100 µM | 81.2 µM | 48 µM | > 100 µM |
| CC(C)C(=O)CC(Sc1ccc(N)cc1)c1ccccc1 (configuration not stated) | > 100 µM | 96.9 µM | 60.5 µM | 61.8 µM | – | > 100 µM | 72.1 µM | 33.8 µM | > 100 µM | > 100 µM | 65.6 µM | 63.5 µM |
